We go through 29 compounds from patent US20100190813A1, “SPIRO [PIPERIDINE-4- 4' -THIENO [3,2-C] PYRAN] DERIVATIVES AND RELATED COMPOUNDS AS INHIBITORS OF THE SIGMA RECEPTOR FOR THE TREATMENT OF PSYCHOSIS” (priority 2007, published 2010).

Molecules are shown by their SMILES. Like-named read-outs stand apart in the source and are kept apart here.

Series [1] has as its target T1, σ2-receptor (Rattus norvegicus, UniProt Q5U3Y7).
T1 construct: the σ2-Receptorpreparation was prepared from rat liver; from tissue; host or cells: rat liver membrane homogenate
T1 sequence (Q5U3Y7 1-176): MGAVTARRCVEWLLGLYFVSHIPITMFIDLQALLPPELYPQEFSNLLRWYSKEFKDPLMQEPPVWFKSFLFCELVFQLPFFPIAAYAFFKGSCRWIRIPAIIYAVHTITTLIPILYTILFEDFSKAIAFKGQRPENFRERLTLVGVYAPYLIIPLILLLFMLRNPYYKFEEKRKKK
The series can be described thus: Sigma 2 receptor binding (Version B), [3H]-Ditolylguanidin displacement. The conditions noted are these: for Ki: [3H]-Ditolylguanidin 3 nM, σ1 sites masked with (+)-Pentazocin 500 nM; for inhibition at 1 µM: read-out: Binding σ2 *[Inhibition at 1 μM]. Here is the method:
In brief the σ2-Receptorpreparation was prepared from rat liver. The livers were homogenized in 5 to 6 times of volume sucrose solution (0.32M) and homogenized. The homogenate was centrifuged at 2900 rpm, 4° C., 10 min). the supernatant was centrifuged again (31000×g, 4° C., 20 min). The pellet was resuspended in TRIS-buffer, incubated for 30 min at room temperature while stirring and centrifuged f (31000×g, 4° C., 20 min). The pellet was resuspended in cold TRIS-buffer pH 8 and homogenized. Then the protein content was measured (approx. 2 mg/mL) and the homogenate frozen at −80° C. for later use.
The radioligand used was [^3H]-Ditolylguanidin in TRIS-buffer pH 8. The σ1-receptor binding sites were masked through (+)-Pentazocin-solution in TRIS-Puffer pH 8.
In a volume of 200 μL 50 μL compound solution of varying concentration, 50 μL (+)-Pentazocin-solution ([…]; resulting in 500 nM in the assay), 50 μL radioligand-solution (12 nM; resulting in 3 nM in the assay) and finally 50 μL of receptor preparation (approx. 2 mg/mL) were given into a well of a microplate equipped with a filter. The plate was closed and stirred for 2 h at room temperature and 500 rpm. Following that the solvents were removed by a harvester through the filter. After rinsing with H2O the filter was measured in a scintillation counter ([^3H]-protocol).

The target of series [2] is T2, σ1-receptor (Cavia porcellus, UniProt Q60492).
T2 construct: the σ1-receptor preparation was prepared from guinea pig brain; from tissue; host or cells: guinea pig brain membrane homogenate
T2 sequence (Q60492 whole entry): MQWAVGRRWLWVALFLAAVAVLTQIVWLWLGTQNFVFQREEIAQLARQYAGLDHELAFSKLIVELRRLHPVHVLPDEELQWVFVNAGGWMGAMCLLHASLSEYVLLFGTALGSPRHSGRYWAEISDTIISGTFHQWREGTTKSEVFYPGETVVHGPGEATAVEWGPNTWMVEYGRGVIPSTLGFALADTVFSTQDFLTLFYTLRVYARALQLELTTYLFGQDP
Nature of the series: Sigma 1 receptor binding (Version B), [3H]-(+)-Pentazocin displacement. Set-up: species or system guinea pig. Here is the method:
In brief the σ1-receptor preparation was prepared from guinea pig brain. The brains were homogenized in 5 to 6 times of volume sucrose solution (0.32M) and homogenized. The homogenate was centrifuged at 2900 rpm, 4° C., 10 min). the supernatant was centrifuged again (23500×g, 4° C., 20 min). The pellet was resuspended in Tris-buffer, incubated for 30 min at room temperature and centrifuged f (23500×g, 4° C., 20 min). The pellet was resuspended in cold TRIS-buffer and homogenized. Then the protein content was measured (approx. 1.5 mg/mL) and the homogenate frozen at −80° C. for later use.
The radioligand used was [^3H]-(+)-Pentazocin in TRIS-buffer. In a volume of 200 μL 50 μL TRIS-buffer, 50 μL compound solution of varying concentration, 50 μL radioligand-solution (8 nM; resulting in 2 nM in the assay) and finally 50 μL of receptor preparation (approx. 1.5 mg/mL) were given into a well of a microplate equipped with a filter. The plate was closed and stirred for 2.5 h at 37° C. and 500 rpm. Following that the solvents were removed by a harvester through the filter. After rinsing with H2O the filter was measured in a scintillation counter ([^3H]-protocol).

The target of series [3] is T2, σ1-receptor. The series can be described thus: Sigma-1 receptor binding (Version A), [3H]-(+)-pentazocine displacement. Set-up: species or system guinea pig.
Where [4] appears, read: version B, rat liver preparation, read-out: Binding σ2 Ki.
Where [5] appears, read: Binding σ2 Ki [nM], version B, rat liver preparation.
Setting [6] is: version B, rat liver preparation, compound at 1 μM.
The mark [7] stands for this setting: version A, guinea pig brain membranes, [3H]-(+)-pentazocine 3.0 nM, read-out: Binding σ1, Ki.
Setting [8] is: version B, guinea pig brain preparation, [3H]-(+)-Pentazocin 2 nM, read-out: Binding σ1 Ki.

`COC1Cc2sccc2C2(CCN(CCc3ccccc3)CC2)O1` (centres unmarked) [Example 4, 6′-Methoxy-1-(2-phenylethyl)-6′,7′-dihydrospiro[piperidin-4,4′-thieno[3.2-c]pyran]] returned a melting point of 94 °C. Further, the Ki in series [1] (setting [4]) worked out at 191 nM. The Ki in series [2] worked out at 5.89 ± 5.1 nM.

Regarding `O=C1Cc2sccc2C2(CCN(Cc3ccccc3)CC2)O1` [Example 28, 1-Benzylspiro[piperidine-4,4′-thieno[3.2-c]pyrano]-6′(7′H)-one], the inhibition at 1 µM in series [1] is 0%.

Turning to `CC(=O)CC1Cc2sccc2C2(CCN(Cc3ccccc3)CC2)O1` (centres unmarked) [Example 23, 1-(1-Benzyl-6′,7′-dihydrospiro[piperidine-4,4′-thieno[3.2-c]pyrano]-6′-yl)acetone], the Ki in series [1] (setting [4]) came to 1610 nM.

On to `COC1Cc2sccc2C2(CCN(CC=C(C)C)CC2)O1` (centres unmarked) [Example 7, 6′-Methoxy-1-(3-methylbut-2-enyl)-6′,7′-dihydrospiro[piperidin-4.4-thieno[3.2-c]pyran]], for which the Ki was determined as 78.1 ± 74 nM in series [1] (setting [5]) and 0.96 ± 0.25 nM in series [2].

For the compound `NC(=O)C1Cc2sccc2C2(CCN(Cc3ccccc3)CC2)O1` (centres unmarked) [Example 29, 1-Benzyl-6′,7′-dihyrospiro[piperidine-4,4′-thieno[3,2-c]pyrano]-6′-carboxamide], the inhibition at 1 µM in series [1] (setting [6]) came to 63%.

Turning to `CCCCCN1CCC2(CC1)OC(OC)Cc1sccc12` (centres unmarked) [Example 9, 6′-Methoxy-1-pentyl-6′,7′-dihydrospiro[piperidin-4,4′-thieno[3.2-c]pyran]], the Ki turned out to be 460 nM in series [1] (setting [4]), 1.64 ± 0.53 nM in series [2] and 2.9 ± 0.5 nM in series [3].

Take `c1ccc(CN2CCC3(CC2)OCCc2sccc23)cc1` [Example 19, 1-Benzyl-6′,7′-dihydrospiro[piperidin-4,4′-thieno[3,2-c]pyran]]: the figures for the Ki in series [1] (setting [5]), in series [2] and in series [3] (setting [7]) were 9.6 ± 8.7 nM, 0.31 ± 0.11 nM and 2.1 ± 0.4 nM, respectively.

With `COC1Cc2sc(Cl)cc2C2(CCN(Cc3ccccc3)CC2)O1` (centres unmarked) [Example 38, 1-Benzyl-2′-chloro-6′-methoxy-6′,7′-dihydrospiro[piperidine-4,4′-thieno[3.2-c]-pyrano]], the melting point was found to be 117 °C. For the same compound, the inhibition at 1 µM in series [1] (setting [6]) stood at 49%.

With `N#CCC1Cc2sccc2C2(CCN(Cc3ccccc3)CC2)O1` (centres unmarked) [Example 18, {1-Benzyl-6′,7′-dihyrospiro[piperidin-4,4′-thieno[3,2-c]pyran]-6′-yl}acetonitril], in series [1] (setting [6]), the inhibition at 1 µM was determined as 6%.

In the case of `COC1Cc2sc(C#N)cc2C2(CCN(Cc3ccccc3)CC2)O1` (centres unmarked) [Example 44, 1-Benzyl-6′-methoxy-6′,7′-dihydrospiro[piperidine-4,4′-thieno[3,2-c]pyrano]-2-carbonitrile], the inhibition at 1 µM in series [1] (setting [6]) is 16%.

Consider `COc1ccc(CN2CCC3(CC2)OC(OC)Cc2sccc23)cc1` (centres unmarked) [Example 14, 6′-Methoxy-1-(4-methoxybenzyl)-6′,7′-dihydrospiro[piperidin-4,4′-thieno[3.2-c]pyran]], for which the Ki in series [1] (setting [4]) worked out at 2970 nM; in series [2], 2.24 ± 0.99 nM.

In the case of `COC1Cc2sccc2C2(CCN(CC3CCCCC3)CC2)O1` (centres unmarked) [Example 5, 1-(Cyclohexylmethyl)-6′Methoxy-6′,7′-dihydrospiro[piperidin-4,4′-thieno[3.2-c]pyran]], the results for the Ki in series [2] (setting [8]) and in series [3] (setting [7]) were 0.29 ± 0.079 nM and 2.2 ± 0.3 nM, respectively.

For the compound `CCCCCCCCN1CCC2(CC1)OC(OC)Cc1sccc12` (centres unmarked) [Example 10, 6′-Methoxy-1-octyl-6′,7′-dihydrospiro[piperidin-4,4-thieno[3.2-c]pyran]], the figures for the Ki in series [1] (setting [4]) and in series [2] were 1200 nM and 4.5 ± 2 nM, respectively.

Consider `COC1Cc2sccc2C2(CCN(CCCc3ccccc3)CC2)O1` (centres unmarked) [Example 11], for which the Ki in series [1] (setting [4]) was 203 nM.

For the compound `COC1Cc2sc(C(OC)OC)cc2C2(CCN(Cc3ccccc3)CC2)O1` (centres unmarked) [Example 37], the melting point stood at 71 °C.

Consider `COC1Cc2sccc2C2(CCN(Cc3ccc(F)cc3)CC2)O1` (centres unmarked) [Example 13, 1-(4-Flourbenzyl)-6′-Methoxy-6′,7′-dihydrospiro[piperidin-4,4′-thieno[3.2-c]pyran]], for which the results for the Ki in series [1] (setting [4]), in series [2] and in series [3] were 425 nM, 3.39 ± 4.54 nM and 2.3 ± 0.4 nM, respectively.

With `COC1Cc2sc(CN(C)C)cc2C2(CCN(Cc3ccccc3)CC2)O1` (centres unmarked) [Example 42, (1-Benzyl-6′-methoxy-6′,7′-dihydrospiro[piperidine-4,4′-thieno[3.2-c]pyrano]-2′-yl)-N,N-dimethylmethanamine], the Ki in series [1] (setting [4]) worked out at 898 nM; in series [2] it was 16.8 ± 1.1 nM.

As for `OCCC1Cc2sccc2C2(CCN(Cc3ccccc3)CC2)O1` (centres unmarked) [Example 27, 2-(1-Benzyl-6′,7′-dihyrospiro[piperidine-4,4′-thieno[3,2-c]pyrano]-6′-yl)ethanol], the inhibition at 1 µM in series [1] (setting [6]) is 11%.

In the case of `COC1Cc2sccc2C2(CCNCC2)O1` (centres unmarked) [Example 2, 6′-Methoxy-6′,7′-dihydrospiro[piperidin-4,4′-thieno[3,2-c]pyran], the inhibition at 1 µM in series [1] (setting [6]) was 17%. In addition, in series [2] (setting [8]), the Ki came out at 602 nM.

For `COC1Cc2sc(C(=O)c3ccccc3)cc2C2(CCN(Cc3ccccc3)CC2)O1` (centres unmarked) [Example 47, 1-(1-Benzyl-6′-methoxy-6′,7′-dihydrospiro[piperidine-4,4′-thieno[3.2-c]pyrano]-2-yl)-1-phenylmethanone], the Ki in series [1] (setting [4]) came out at 427 ± 163 nM.

Consider `COC1Cc2sc(C=NO)cc2C2(CCN(Cc3ccccc3)CC2)O1` (mixture of isomers) [Example 43, (E/Z)-1-Benzyl-6′-methoxy-6′,7′-dihydrospiro[piperidine-4,4′-thieno[3,2-c]pyrano]-2-carbaldehydroxim], for which the inhibition at 1 µM in series [1] (setting [6]) came out at 2%.

For the compound `COC(=O)c1cc2c(s1)CC(OC)OC21CCN(Cc2ccccc2)CC1` (centres unmarked) [Example 45, Methyl-1-benzyl-6′-methoxy-6′,7′-dihydrospiro[piperidine-4,4′-thieno[3,2-c]pyrano]-2-carboxylate], in series [1] (setting [6]), the inhibition at 1 µM was found to be 45%.

As for `CCOC(=O)C1Cc2sccc2C2(CCN(Cc3ccccc3)CC2)O1` (centres unmarked) [Example 33, Ethyl-1-benzyl-6′,7′-dihvrospiro[piperidine-4,4′-thieno[3,2-c]pyrano]-6′-carboxylate], the inhibition at 1 µM in series [1] (setting [6]) came out at 0%.

With `CCCCN1CCC2(CC1)OC(OC)Cc1sccc12` (centres unmarked) [Example 8, 1-Butyl-6′-methoxy-6′,7′-dihydrospiro[piperidin-4,4′-thieno[3.2-c]pyran]], the Ki in series [1] (setting [4]) turned out to be 497 ± 294 nM; in series [2] (setting [8]), 4.3 ± 0.44 nM; in series [3] it was 5.5 ± 1.2 nM.

As for `N#CCC1Cc2sccc2C2(CCN(Cc3ccccc3)CC2)O1` (centres unmarked) [Example 23a], in series [1] (version B, rat liver preparation, compound at 1 μM, 1 µM), the “Binding σ2 *[Inhibition at 1 μM]” value is 6%.

Take `COC1Cc2sccc2C2(CCN(CCCCc3ccccc3)CC2)O1` (centres unmarked) [Example 12, 3′-Methoxy-1-(4-phenylbutyl)-6′,7′-dihydrospiro[piperidin-4,4% thieno[3.2-c]pyran]]: the Ki was 99.2 ± 21.9 nM in series [1] (setting [5]) and 7.67 ± 2.15 nM in series [2] (setting [8]).

On to `COC1Cc2sccc2C2(CCN(CCC(C)C)CC2)O1` (centres unmarked) [Example 6, 6′-Methoxy-1-(3-methylbutyl)-6′,7′-dihydrospiro[piperidin-4,4′-thieno[3.2-c]pyran]], for which the Ki in series [1] (setting [4]) was 285 nM; in series [2], 0.96 ± 0.53 nM; in series [3] it was 1.3 ± 0.5 nM.

Regarding `c1ccc(CN2CCC3(CC2)OCCc2sccc23)cc1` [Example 26a], the Ki in series [2] (read-out: Binding σ1 Ki, version B, guinea pig brain preparation, [3H]-(+)-Pentazocin 2 nM) worked out at 0.31 ± 0.11 nM.

Take `COC1Cc2sccc2C2(CCN(Cc3cccs3)CC2)O1` (centres unmarked) [Example 15, 6′-Methoxy-1-(thien-2-ylmethyl)-6′,7′-dihydrospiro[piperidin-4,4′-thieno[3.2-c]pyran]]: the Ki was determined as 1040 nM in series [1] (setting [4]) and 2.02 ± 0.61 nM in series [2] (setting [8]).

In general, melting point refers to the temperature of the solid-liquid transition. Usually inhibition stands for how much of the control response was suppressed.
